Article PMC4965013, “Open Source Drug Discovery with the Malaria Box Compound Collection for Neglected Diseases and Beyond” (PLoS Pathogens, 2016)
One block for each molecule: values may come before it.

Assays:
[1] = test system: P. falciparum 3D7 trophozoites; experiment: Metabolomic fingerprint profiling LC-MS; assay type: cell-based, Plasmodium falciparum; parameters: UDP-D-glucose / ADP-D-glucose: unit not given here; conditions: for Acetyllysine / N-acetyl-L-ornithine / N-carbamoyl-L-aspartate / NADPH / dAMP / dCMP / dTDP / dTMP / dTTP / dihydroorotate / orotate / DLH / DLS/SDL/SID / PD / PEE / PVNF / 3-phosphoglycerate / ADP-D-glucose / ATP / CDP / D-sedoheptulose-1/7-phosphate / FAD / GMP / NAD+ / NADP+ / Octoluse Bisphosphate / Pyroglutamic acid / UDP-D-glucose / UDP-D-glucuronate / UDP-N-acetyl-glucosamine / UDP / UMP / UTP / a-ketoglutarate / citrate/isocitrate / cytidine / dATP / dGMP/AMP / fumarate / glucose-1/6-phosphate / glycerate / guanine / guanosine / hypoxanthine / indole / inosine / nicotinate / ornithine / phosphoenolpyruvate / pyruvate / ribose-phosphate / sarcosine/alanine / sn-glycerol-3-phosphate / succinate/methylmalonic acid / uridine / xanthosine: S2 Table Metabolomics; for Acetyllysine: metabolite Acetyllysine; for N-acetyl-L-ornithine: metabolite N-acetyl-L-ornithine; for N-carbamoyl-L-aspartate: metabolite N-carbamoyl-L-aspartate; for NADPH: metabolite NADPH; for dAMP: metabolite dAMP; for dCMP: metabolite dCMP; for dTDP: metabolite dTDP; for dTMP: metabolite dTMP; for dTTP: metabolite dTTP; for dihydroorotate: metabolite dihydroorotate; for orotate: metabolite orotate; for DLH: peptide DLH; for DLS/SDL/SID: peptide DLS/SDL/SID; for PD: peptide PD; for PEE: peptide PEE; for PVNF: peptide PVNF; for 3-phosphoglycerate: metabolite 3-phosphoglycerate; for ADP-D-glucose: metabolite ADP-D-glucose; for ATP: metabolite ATP; for CDP: metabolite CDP; for CDP / D-sedoheptulose-1/7-phosphate / GMP / Octoluse Bisphosphate / UDP / UMP / UTP / citrate/isocitrate / dGMP/AMP / fumarate / glucose-1/6-phosphate / glycerate / guanine / guanosine / inosine / pyruvate / sarcosine/alanine / succinate/methylmalonic acid / uridine / xanthosine: change in metabolite level after compound treatment; for D-sedoheptulose-1/7-phosphate: metabolite D-sedoheptulose-1/7-phosphate; for FAD: metabolite FAD; for GMP: metabolite GMP; for NAD+: metabolite NAD+; for NADP+: metabolite NADP+; for Octoluse Bisphosphate: metabolite Octoluse Bisphosphate; for Pyroglutamic acid: metabolite Pyroglutamic acid; for UDP-D-glucose: metabolite UDP-D-glucose; for UDP-D-glucuronate: metabolite UDP-D-glucuronate; for UDP-N-acetyl-glucosamine: metabolite UDP-N-acetyl-glucosamine; for UDP: metabolite UDP; for UMP: metabolite UMP; for UTP: metabolite UTP; for a-ketoglutarate: metabolite a-ketoglutarate; for citrate/isocitrate: metabolite citrate/isocitrate; for cytidine: metabolite cytidine; for dATP: metabolite dATP; for dGMP/AMP: metabolite dGMP/AMP; for fumarate: metabolite fumarate; for glucose-1/6-phosphate: metabolite glucose-1/6-phosphate; for glycerate: metabolite glycerate; for guanine: metabolite guanine; for guanosine: metabolite guanosine; for hypoxanthine: metabolite hypoxanthine; for indole: metabolite indole; for inosine: metabolite inosine; for 2_3-Diphosphoglyceric acid / 4-phosphopantothenate / 6-phospho-D-gluconate / FMN / IMP / Pyrophosphate / Sedoheptoluse bisphosphate / cyclic-AMP / glutathione disulfide / lactate / myo-inositol: metabolite level change after treatment; for nicotinate: metabolite nicotinate; for ornithine: metabolite ornithine; for phosphoenolpyruvate: metabolite phosphoenolpyruvate; for pyruvate: metabolite pyruvate; for ribose-phosphate: metabolite ribose-phosphate; for sarcosine/alanine: metabolite sarcosine/alanine; for sn-glycerol-3-phosphate: metabolite sn-glycerol-3-phosphate; for succinate/methylmalonic acid: metabolite succinate/methylmalonic acid; for uridine: metabolite uridine; for xanthosine: metabolite xanthosine
P. falciparum = experiment: EC50 listed in S2 Table Metabolomics (used to set the concentration tested); assay type: cell-based; conditions: Plasmodium falciparum; EC50 used for Factor_XEC50 in metabolomics; read-out: EC50_nM

EC50 (P. falciparum): 0.0899 µM
SMILES: COc1ccc(-c2cc3c(SCC(=O)Nc4cc(C(F)(F)F)ccc4Cl)nccn3n2)cc1 [MMV396679]
Acetyllysine [1]: -0.1115 | N-acetyl-L-ornithine [1]: -0.02651 | N-carbamoyl-L-aspartate [1]: 3.992 | NADPH [1]: 0.255 | dAMP [1]: 0.01076 | dCMP [1]: -0.01731 | dTDP [1]: -0.9721 | dTMP [1]: -0.9985 | dTTP [1]: -1.02 | dihydroorotate [1]: 4.797 | orotate [1]: 0.864 | DLH [1]: -0.2125 | DLS/SDL/SID [1]: -0.04913 | PD [1]: -0.04215 | PEE [1]: -0.3501 | PVNF [1]: -0.2936 | 3-phosphoglycerate [1]: -0.0577 | ADP-D-glucose [1]: -0.06603 | ATP [1]: 0.1822 | CDP [1]: -0.644 | D-sedoheptulose-1/7-phosphate [1]: 0.2024 | FAD [1]: 0.03763 | GMP [1]: 0.3849 | NAD+ [1]: -0.01439 | NADP+ [1]: -0.06317 | Octoluse Bisphosphate [1]: -0.02018 | Pyroglutamic acid [1]: 0.2933 | UDP-D-glucose [1]: -0.1121 | UDP-D-glucuronate [1]: -0.02141 | UDP-N-acetyl-glucosamine [1]: -0.3213 | UDP [1]: -1.37 | UMP [1]: -0.7971 | UTP [1]: -1.261 | a-ketoglutarate [1]: 0.1314 | citrate/isocitrate [1]: 0.05797 | cytidine [1]: 0.1643 | dATP [1]: 0.3792 | dGMP/AMP [1]: -0.06069 | fumarate [1]: -0.2305 | glucose-1/6-phosphate [1]: 0.5016 | glycerate [1]: 0.4143 | guanine [1]: 0.4991 | guanosine [1]: 0.9003 | hypoxanthine [1]: 0.3227 | indole [1]: 0.2561 | inosine [1]: 0.1928 | 2_3-Diphosphoglyceric acid [1]: 0.1312 | 4-phosphopantothenate [1]: -0.2367 | 6-phospho-D-gluconate [1]: 0.186 | FMN [1]: -0.2039 | IMP [1]: -0.06535 | Pyrophosphate [1]: 0.04157 | Sedoheptoluse bisphosphate [1]: -0.03524 | cyclic-AMP [1]: -0.06553 | glutathione disulfide [1]: 0.06998 | lactate [1]: 0.2306 | myo-inositol [1]: 0.2632 | nicotinate [1]: 0.2615 | ornithine [1]: 0.183 | phosphoenolpyruvate [1]: -0.02867 | pyruvate [1]: -0.158 | ribose-phosphate [1]: -0.4444 | sarcosine/alanine [1]: 0.1483 | sn-glycerol-3-phosphate [1]: -0.1937 | succinate/methylmalonic acid [1]: -0.8703 | uridine [1]: -0.4231 | xanthosine [1]: 0.3074

EC50 (P. falciparum): 0.0202 µM
SMILES: COc1ccc(NC(=O)C2c3ccccc3C(=O)N(CC(C)C)C2c2cccs2)cc1Cl (stereo not drawn) [MMV000642]
Acetyllysine [1]: -5.193 | N-acetyl-L-ornithine [1]: -3.747 | N-carbamoyl-L-aspartate [1]: -2.41 | NADPH [1]: -0.3813 | dAMP [1]: 2.141 | dCMP [1]: 1.187 | dTDP [1]: 1.699 | dTMP [1]: 3.58 | dTTP [1]: 1.5 | dihydroorotate [1]: -2.555 | orotate [1]: -0.348 | DLH [1]: -5.968 | DLS/SDL/SID [1]: -3.9977 | PD [1]: -2.5956 | PEE [1]: -3.5386 | PVNF [1]: -6.505 | 3-phosphoglycerate [1]: -0.2719 | ADP-D-glucose [1]: -0.1906 | ATP [1]: -1.554 | CDP [1]: -0.7723 | D-sedoheptulose-1/7-phosphate [1]: -1.211 | FAD [1]: -1.709 | GMP [1]: -1.9066 | NAD+ [1]: -0.5171 | NADP+ [1]: -0.1638 | Octoluse Bisphosphate [1]: -2.57 | Pyroglutamic acid [1]: 0.06474 | UDP-D-glucose [1]: -0.2074 | UDP-D-glucuronate [1]: -0.1541 | UDP-N-acetyl-glucosamine [1]: -0.04904 | UDP [1]: -1.27 | UMP [1]: -0.4497 | UTP [1]: -1.308 | a-ketoglutarate [1]: -0.0007361 | citrate/isocitrate [1]: -0.3751 | cytidine [1]: 0.1777 | dATP [1]: 0.01445 | dGMP/AMP [1]: -0.6011 | fumarate [1]: -0.3143 | glucose-1/6-phosphate [1]: -1.542 | glycerate [1]: -0.9599 | guanine [1]: 0.2177 | guanosine [1]: 0.8357 | hypoxanthine [1]: -0.2894 | indole [1]: -0.1989 | inosine [1]: 0.04742 | 2_3-Diphosphoglyceric acid [1]: -1.07 | 4-phosphopantothenate [1]: -0.7331 | 6-phospho-D-gluconate [1]: -0.5035 | FMN [1]: -0.2051 | IMP [1]: -0.1621 | Pyrophosphate [1]: -1.141 | Sedoheptoluse bisphosphate [1]: -1.388 | cyclic-AMP [1]: -0.8649 | glutathione disulfide [1]: -0.7288 | lactate [1]: -1.097 | myo-inositol [1]: -1.4412 | nicotinate [1]: 0.5786 | ornithine [1]: 0.1669 | phosphoenolpyruvate [1]: 0.08762 | pyruvate [1]: -0.8949 | ribose-phosphate [1]: -0.3617 | sarcosine/alanine [1]: -1.783 | sn-glycerol-3-phosphate [1]: 1.156 | succinate/methylmalonic acid [1]: 0.05807 | uridine [1]: 1.2 | xanthosine [1]: -1.585

EC50 (P. falciparum): 0.142 µM
SMILES: O=[N+]([O-])c1ccc(C=NNc2nc3ccccc3[nH]2)cc1 [MMV666607]
Acetyllysine [1]: -1.035 | N-acetyl-L-ornithine [1]: -1.151 | N-carbamoyl-L-aspartate [1]: 0.2298 | NADPH [1]: 4.216 | dAMP [1]: 0.3403 | dCMP [1]: 0.1583 | dTDP [1]: 0.005163 | dTMP [1]: -0.3628 | dTTP [1]: 0.4469 | dihydroorotate [1]: 0.1326 | orotate [1]: 0.05442 | DLH [1]: -0.8554 | DLS/SDL/SID [1]: -0.615 | PD [1]: -0.4537 | PEE [1]: -0.9074 | PVNF [1]: -1.15 | 3-phosphoglycerate [1]: 0.2233 | ADP-D-glucose [1]: 0.2125 | ATP [1]: 0.06188 | CDP [1]: -0.1249 | D-sedoheptulose-1/7-phosphate [1]: -0.1388 | FAD [1]: -0.1276 | GMP [1]: -0.06014 | NAD+ [1]: -0.1512 | NADP+ [1]: 0.1119 | Octoluse Bisphosphate [1]: -0.09651 | Pyroglutamic acid [1]: -0.1918 | UDP-D-glucose [1]: -0.06053 | UDP-D-glucuronate [1]: -0.006477 | UDP-N-acetyl-glucosamine [1]: -0.08493 | UDP [1]: -0.2957 | UMP [1]: -0.07591 | UTP [1]: 0.3053 | a-ketoglutarate [1]: -0.2127 | citrate/isocitrate [1]: -0.1765 | cytidine [1]: -0.4158 | dATP [1]: 0.1896 | dGMP/AMP [1]: 0.09335 | fumarate [1]: 0.008021 | glucose-1/6-phosphate [1]: -0.3879 | glycerate [1]: -0.4956 | guanine [1]: -0.1214 | guanosine [1]: 0.1402 | hypoxanthine [1]: -0.3554 | indole [1]: -0.1954 | inosine [1]: -0.3969 | 2_3-Diphosphoglyceric acid [1]: 0.1914 | 4-phosphopantothenate [1]: 0.07423 | 6-phospho-D-gluconate [1]: 0.02335 | FMN [1]: -0.06375 | IMP [1]: 0.01329 | Pyrophosphate [1]: 0.2379 | Sedoheptoluse bisphosphate [1]: 0.02366 | cyclic-AMP [1]: 0.0305 | glutathione disulfide [1]: 0.01063 | lactate [1]: -0.3072 | myo-inositol [1]: -0.4133 | nicotinate [1]: 0.09712 | ornithine [1]: -0.3198 | phosphoenolpyruvate [1]: 0.2853 | pyruvate [1]: -0.3236 | ribose-phosphate [1]: 0.1666 | sarcosine/alanine [1]: -0.06565 | sn-glycerol-3-phosphate [1]: -0.0116 | succinate/methylmalonic acid [1]: 0.01013 | uridine [1]: -0.4646 | xanthosine [1]: 0.06506
